# Assay results as given in ChEMBL document CHEMBL6083192, “Discovery of 1,2,4-Triazole-3-thione Derivatives as Potent and Selective DCN1 Inhibitors for Pathological Cardiac Fibrosis and Remodeling” (J Med Chem, 2024).
# Key:
# [1] = Inhibition of GST-tagged DCN4 (unknown origin)/acetylated-biotin tagged UBC12 (unknown origin) protein-protein interaction assessed as inhibition constant incubated for 30 mins by HTRF assay
# [2] = Inhibition of GST-tagged DCN2 (unknown origin)/acetylated-biotin tagged UBC12 (unknown origin) protein-protein interaction assessed as inhibition constant incubated for 30 mins by HTRF assay
# [3] = Inhibition of GST-tagged DCN5 (unknown origin)/acetylated-biotin tagged UBC12 (unknown origin) protein-protein interaction assessed as inhibition constant incubated for 30 mins by HTRF assay
# [4] = Inhibition of GST-tagged DCN3 (unknown origin)/acetylated-biotin tagged UBC12 (unknown origin) protein-protein interaction assessed as inhibition constant incubated for 30 mins by HTRF assay
# [5] = molecular target: DCN1-like protein 1/NEDD8-conjugating enzyme Ubc12 (Homo sapiens, UniProt Q96GG9); assay: Inhibition of GST-tagged DCN1 (unknown origin)/acetylated-biotin tagged UBC12 (unknown origin) protein-protein interaction incubated for 30 mins by HTRF assay
# Sequence of DCN1-like protein 1/NEDD8-conjugating enzyme Ubc12 (Q96GG9 whole entry): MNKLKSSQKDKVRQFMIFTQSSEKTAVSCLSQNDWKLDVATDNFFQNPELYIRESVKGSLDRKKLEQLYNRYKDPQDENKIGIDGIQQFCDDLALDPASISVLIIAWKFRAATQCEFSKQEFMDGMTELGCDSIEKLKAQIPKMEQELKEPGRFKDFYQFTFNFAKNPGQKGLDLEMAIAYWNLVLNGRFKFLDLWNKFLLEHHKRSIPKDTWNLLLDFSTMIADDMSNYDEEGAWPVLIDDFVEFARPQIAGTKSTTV
# Sequence of DCN1-like protein 1/NEDD8-conjugating enzyme Ubc12 (P61081 whole entry, further chain): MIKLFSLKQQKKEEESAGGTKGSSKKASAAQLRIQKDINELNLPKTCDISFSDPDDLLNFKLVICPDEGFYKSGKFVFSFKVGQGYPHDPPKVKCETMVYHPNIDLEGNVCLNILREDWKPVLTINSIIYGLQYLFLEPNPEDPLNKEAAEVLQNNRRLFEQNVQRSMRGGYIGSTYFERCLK
# DCN1-like protein 1 = DCN1-like protein 1 (Homo sapiens, UniProt Q96GG9); assay: Inhibition of DCN1 (unknown origin) assessed as inhibition constant
# Sequence of DCN1-like protein 1 (Q96GG9 whole entry): as the sequence (Q96GG9 whole entry) above
# [6] = Hepatotoxicity in human L02 cells assessed as reduction in cell viability by MTT assay
Compound,IC50 [5],also measured
C#CCSc1nc(Sc2nccs2)c(C#N)c(-c2ccc(C)cc2)n1,,Ki [1]: 810 nM; Ki [2]: 66.2 nM; Ki [3]: 2140 nM; Ki [4]: 592 nM
COc1ccc(-c2n[nH]c(=S)n2CCC(=O)Nc2cc(-c3ccccc3)ccc2O)cc1,1110 nM,
Cc1ccc(O)c(NC(=O)CCn2c(-c3ccc(Cl)cc3)n[nH]c2=S)c1,650 nM,
COc1ccc(-c2n[nH]c(=S)n2CCC(=O)NCc2ccoc2)cc1,> 20000 nM,
CSc1nnc(-c2ccc(Cl)cc2)n1CCC(=O)Nc1cccc(C(F)(F)F)c1,1630 nM,
COc1cccc(NC(=O)CCn2c(-c3ccc(Cl)cc3)n[nH]c2=S)c1,77.6 nM,
O=C(CCn1c(-c2ccncc2)n[nH]c1=S)Nc1cccc(C(F)(F)F)c1,221 nM,
C=C(CN(C)C)C(=O)NC[C@@H](NC(=O)[C@H](Cc1nc2ccc(C(C)C)cc2s1)NC(=O)CC)C1CCCCC1,,Ki (DCN1-like protein 1): < 1 nM
O=C(CCn1c(-c2ccc(Br)cc2)n[nH]c1=S)Nc1cccc(C(F)(F)F)c1,24.9 nM,
COc1ccc(CNC(=O)CCn2c(-c3ccc(OC)cc3)n[nH]c2=S)cc1,> 20000 nM,
CC(C)(C)c1ccc(-c2n[nH]c(=S)n2CCC(=O)Nc2cccc(C(F)(F)F)c2)cc1,7.85 nM,
C#CCNC(=O)CCn1c(-c2ccc(Cl)cc2)n[nH]c1=S,> 20000 nM,
COc1ccc(-c2n[nH]c(=S)n2CCC(=O)Nc2ccc(OC)cc2OC)cc1,840 nM,
CCSc1nnc(-c2ccc(Cl)cc2)n1CCC(=O)Nc1cccc(C(F)(F)F)c1,2200 nM,
CC(C)(C)c1ccc(NC(=O)CCn2c(-c3ccc(Cl)cc3)n[nH]c2=S)cc1,8.77 nM,IC50 [6]: > 100 µg/mL
Cc1cccc2[nH]c(CSc3nnc(-c4ccc(Cl)cc4)n3CCC(=O)Nc3cccc(C(F)(F)F)c3)nc12,7110 nM,
O=C(CCn1c(-c2ccc(Cl)cc2)n[nH]c1=S)Nc1cccc(Br)c1,22.2 nM,
O=C(CCn1c(-c2ccc(O)cc2)n[nH]c1=S)NCc1cccc(C(F)(F)F)c1,43.1 nM,
COc1ccc(-c2n[nH]c(=S)n2CCC(=O)NCCc2c[nH]c3ccccc23)cc1,2280 nM,
COc1ccc(-c2n[nH]c(=S)n2CCC(=O)Nc2cc(C)ccc2O)cc1,1460 nM,

Compound,IC50 [5],also measured
O=C(CCn1c(-c2ccc(Cl)cc2)n[nH]c1=S)Nc1ccc(Br)cc1,25.6 nM,
O=C(CCn1c(-c2cccc(Cl)c2)n[nH]c1=S)Nc1cccc(C(F)(F)F)c1,19.9 nM,IC50 [6]: > 100 µg/mL
O=C(CCn1c(-c2ccc(Cl)cc2)n[nH]c1=S)NCc1ccoc1,> 20000 nM,
N#Cc1cc(NC(=O)CCn2c(-c3ccc(Cl)cc3)n[nH]c2=S)n[nH]1,> 20000 nM,
O=C(CCn1c(-c2ccc(Cl)cc2)n[nH]c1=S)Nc1ccc(F)cc1,130 nM,
COc1ccc(NC(=O)CCn2c(-c3ccc(Cl)cc3)n[nH]c2=S)cc1,90.9 nM,
O=C(CCn1c(-c2ccc(Cl)cc2)n[nH]c1=S)Nc1ccccc1,545 nM,
O=C(CCn1c(-c2ccc(Cl)cc2)n[nH]c1=S)Nc1ccc(O)cc1,> 20000 nM,
CC(C)c1ccc(NC(=O)CCn2c(-c3ccc(Cl)cc3)n[nH]c2=S)cc1,12.8 nM,IC50 [6]: > 100 µg/mL
CC(C)(C)c1ccc(O)c(NC(=O)CCn2c(-c3ccc(Cl)cc3)n[nH]c2=S)c1,195 nM,
COc1ccc(-c2n[nH]c(=S)n2CCC(=O)Nc2cc(C#N)[nH]n2)cc1,> 20000 nM,
COc1ccccc1NC(=O)CCn1c(-c2ccc(Cl)cc2)n[nH]c1=S,884 nM,
O=C(CCn1c(-c2c[nH]c3ccccc23)n[nH]c1=S)Nc1cccc(C(F)(F)F)c1,9.39 nM,IC50 [6]: > 100 µg/mL
COc1ccc(-c2n[nH]c(=S)n2CCC(=O)Nc2ccc(Br)cc2O)cc1,209 nM,
O=C(CCn1c(-c2ccc(O)cc2)n[nH]c1=S)Nc1ccc(C(F)(F)F)cc1,10.6 nM,IC50 [6]: > 100 µg/mL
COc1ccc(-c2n[nH]c(=S)n2CCC(=O)Nc2cc(C(C)(C)C)ccc2O)cc1,2320 nM,
O=C(CCn1c(-c2ccc(F)cc2)n[nH]c1=S)Nc1cccc(C(F)(F)F)c1,18.9 nM,IC50 [6]: > 100 µg/mL
O=C(CCn1c(-c2ccc(Cl)cc2)n[nH]c1=S)Nc1cc(-c2ccccc2)ccc1O,330 nM,
O=C(CCn1c(SCC(=O)Nc2ccccc2)nnc1-c1ccc(Cl)cc1)Nc1cccc(C(F)(F)F)c1,> 20000 nM,
O=C(CCn1c(-c2ccc(O)cc2)n[nH]c1=S)Nc1ccccc1C(F)(F)F,100 nM,

Compound,IC50 [5],also measured
O=C(CCn1c(-c2ccc(Cl)cc2)n[nH]c1=S)NCCc1c[nH]c2ccccc12,2170 nM,
COc1ccc(CSc2nnc(-c3ccc(Cl)cc3)n2CCC(=O)Nc2cccc(C(F)(F)F)c2)cc1,4110 nM,
O=C(CCCn1c(-c2ccc(Cl)cc2)n[nH]c1=S)Nc1cccc(C(F)(F)F)c1,45.2 nM,
O=C(CCn1c(-c2ccc([N+](=O)[O-])cc2)n[nH]c1=S)Nc1cccc(C(F)(F)F)c1,46.2 nM,
COc1ccc(CNC(=O)CCn2c(-c3ccc(Cl)cc3)n[nH]c2=S)cc1,> 20000 nM,
COc1ccc(-c2n[nH]c(=S)n2CCC(=O)Nc2cccc(C(F)(F)F)c2)cc1,14.1 nM,IC50 [6]: > 100 µg/mL
O=C(Cn1c(-c2ccc(Cl)cc2)n[nH]c1=S)Nc1cccc(C(F)(F)F)c1,27.4 nM,
Cc1ccc(-c2n[nH]c(=S)n2CCC(=O)Nc2cccc(C(F)(F)F)c2)cc1,9.42 nM,IC50 [6]: > 100 µg/mL
O=C(CCn1c(-c2ccccc2Cl)n[nH]c1=S)Nc1cccc(C(F)(F)F)c1,28.8 nM,
CC(C)c1cccc(NC(=O)CCn2c(-c3ccc(Cl)cc3)n[nH]c2=S)c1,15.7 nM,IC50 [6]: > 100 µg/mL
CCCCc1ccc(NC(=O)CCn2c(-c3ccc(Cl)cc3)n[nH]c2=S)cc1,12.3 nM,IC50 [6]: > 100 µg/mL
O=C(CSc1nnc(-c2ccc(Cl)cc2)n1CCC(=O)Nc1cccc(C(F)(F)F)c1)NC(=O)Nc1ccccc1,> 20000 nM,
Cc1ccc(NC(=O)CCn2c(-c3ccc(Cl)cc3)n[nH]c2=S)cc1,50.5 nM,
O=C(CCn1cnnc1-c1ccc(Cl)cc1)Nc1cccc(C(F)(F)F)c1,15800 nM,
O=C(CCn1c(-c2ccc(Cl)cc2Br)n[nH]c1=S)Nc1cccc(C(F)(F)F)c1,5.41 nM,
C#CCNC(=O)CCn1c(-c2ccc(OC)cc2)n[nH]c1=S,> 20000 nM,
COc1cc(-c2nc(SCc3ccc(Cl)cc3)nc(Sc3nnnn3C)c2C#N)cc(OC)c1OC,,Ki [1]: > 20000 nM; Ki [2]: 18.8 nM; Ki [3]: > 20000 nM; Ki [4]: 385 nM
O=C(CCn1c(-c2ccc(Cl)cc2)n[nH]c1=O)Nc1cccc(C(F)(F)F)c1,7580 nM,
O=C(CCn1c(-c2ccc(Cl)cc2)n[nH]c1=S)Nc1ccc(Cl)cc1,69.4 nM,
O=C(CCn1c(-c2ccccc2)n[nH]c1=S)Nc1cccc(C(F)(F)F)c1,15.3 nM,IC50 [6]: > 100 µg/mL
